Where “and” joins values, the source holds several entries; their conditions need not be identical. Identical values can stand only once. Entries after “also recorded” stand apart in the source; their conditions may differ.
Legend:
μ-opioid receptors = system: μ-opioid receptors; design: method as in PMID 27192616; conditions: cited from earlier work
α-glucosidase [1] = target: T1, α-glucosidase (Saccharomyces cerevisiae, UniProt P53341); assay: α-glucosidase inhibition and kinetics, pNPG substrate; assay type: biochemical; conditions: Lineweaver–Burk plots
Experimental: The assay was performed as described previously with some modifications. The kinetic parameters (Michaelis–Menten constant; Km and maximum velocity; Vmax) of α-glucosidase were determined by using p-nitrophenol-α-D-glucopyranoside (pNPG) as a substrate. Briefly, 0.1 unit of α-glucosidase (Sigma-Aldrich, St Louis, MO, USA) were incubated at 37 °C with 100 µL of total reaction. After 10 min, the reactions were started by adding 50 µL pNPG (Sigma-Aldrich, St Louis, MO, USA, lot number 3698310) ranging from 0 to 15 mM, and the p-nitrophenol product was measured at 405 nm using a microplate reader (Multiskan SkyHigh, Thermo Scientific, Göteborg, Sweden). The substrate concentration rates were plotted against pNPG concentrations and fitted to the Michaelis–Menten equation.
The IC50 was determined by comparing the rate of each test inhibitor concentration to that of the vehicle control (ethanol), and the IC50 was calculated by plotting the remaining activity of each inhibitor concentration to the log test inhibitor concentration. […] After co-incubation with each inhibitor for 5 min at 37 °C, the reactions were initiated by adding the p-NPG substrate (0–15 mM). The inhibition constant (Ki) values were determined from Lineweaver–Burk Plots.

pancreatic lipase = target: T2, pancreatic lipase (Sus scrofa, UniProt P00591); assay: pancreatic lipase inhibition and kinetics, 4MUO substrate; assay type: biochemical; conditions: for Pancreatic Lipase mode of inhibition: Lineweaver–Burk plots
T2 construct: purchased Sigma-Aldrich
T2 sequence (P00591 1-450): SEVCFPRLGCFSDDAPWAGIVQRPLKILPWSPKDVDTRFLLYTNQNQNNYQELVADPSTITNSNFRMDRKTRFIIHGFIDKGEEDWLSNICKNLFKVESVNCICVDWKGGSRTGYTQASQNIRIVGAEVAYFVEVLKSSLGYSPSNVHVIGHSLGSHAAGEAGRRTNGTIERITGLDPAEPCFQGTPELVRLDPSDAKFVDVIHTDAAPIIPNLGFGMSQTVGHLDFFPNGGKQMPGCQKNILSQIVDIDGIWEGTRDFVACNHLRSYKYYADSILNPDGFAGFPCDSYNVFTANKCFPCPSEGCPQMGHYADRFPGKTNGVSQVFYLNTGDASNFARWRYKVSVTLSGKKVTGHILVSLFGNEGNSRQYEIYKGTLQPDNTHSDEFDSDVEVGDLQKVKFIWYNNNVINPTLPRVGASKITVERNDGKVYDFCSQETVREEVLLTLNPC
Experimental: The kinetic parameters (Km and Vmax) of pancreatic lipase were determined using 4-methylumbelliferyl oleate (4MUO) as the substrate (Sigma-Aldrich, St Louis, MO, USA, Lot number BCCF8781). Briefly, 0.5 units of lipase (Sigma-Aldrich, St Louis, MO, USA, Lot number SLCG8579) were incubated in 96-well plates with a total volume of 100 µL (15 mM Tris-HCl buffer, pH 8.0) at 37 °C for 10 min. The reactions were initiated by adding 50 µL of 4MUO ranging from 0 to 5 mM. […] The rates at which substrate concentrations were plotted against 4MUO concentrations and fitted to the Michaelis–Menten equation. […] After 10 min, the reactions were started by adding 0.35 mM 4MUO. The reaction rates were monitored by measuring the release of 4MU from 4MUO. […] The remaining activity of lipase was determined by comparing the rate of each test inhibitor concentration to the vehicle control (ethanol), and IC50 was calculated by plotting the remaining activity of each inhibitor concentration to the log test inhibitor concentration.

α-glucosidase [2] = target: T1, α-glucosidase; assay: combination of kratom extracts or mitragynine with acarbose on α-glucosidase; assay type: biochemical
Experimental: After 10 min, the residual reactions were started by the addition of 50 µL of 0.3 mM pNPG. The reactions were left to proceed for 10 min. The absorption at 405 nm was then measured using a microplate reader, and IC50 values were calculated by GraphPad Prism version 9.3.1.

lipase = system: lipase; design: method as in PMID 29292744; conditions: therapeutic oral dose of 120 mg three times per day; cited from earlier work

T1 sequence (P53341 whole entry): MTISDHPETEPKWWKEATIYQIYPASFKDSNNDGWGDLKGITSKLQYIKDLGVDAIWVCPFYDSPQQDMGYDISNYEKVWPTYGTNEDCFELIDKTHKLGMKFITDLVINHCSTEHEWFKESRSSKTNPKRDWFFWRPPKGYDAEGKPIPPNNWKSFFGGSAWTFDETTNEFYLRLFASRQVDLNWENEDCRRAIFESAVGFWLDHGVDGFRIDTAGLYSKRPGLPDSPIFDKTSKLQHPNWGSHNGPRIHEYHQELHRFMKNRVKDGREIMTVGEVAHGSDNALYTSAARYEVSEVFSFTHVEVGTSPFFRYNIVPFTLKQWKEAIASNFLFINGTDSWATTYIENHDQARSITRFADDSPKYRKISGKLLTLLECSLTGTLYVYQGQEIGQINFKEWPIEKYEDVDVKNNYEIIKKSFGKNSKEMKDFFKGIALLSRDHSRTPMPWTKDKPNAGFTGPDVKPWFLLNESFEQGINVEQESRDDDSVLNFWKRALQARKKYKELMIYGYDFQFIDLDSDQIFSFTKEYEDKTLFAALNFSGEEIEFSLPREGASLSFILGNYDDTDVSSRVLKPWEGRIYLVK

For `CC[C@@H]1CN2CC[C@@]3(O)C(=Nc4cccc(OC)c43)[C@@H]2C[C@@H]1/C(=C\OC)C(=O)OC` [7-hydroxymitragynine], the “analgesic activity, fold higher than that of mitragynine” value (μ-opioid receptors) is given as 16 fold.

For `C[C@H]1O[C@H](O[C@H]2[C@H](O)[C@@H](O)[C@@H](O[C@H]3[C@H](O)[C@@H](O)C(O)O[C@@H]3CO)O[C@@H]2CO)[C@H](O)[C@@H](O)[C@@H]1N[C@H]1C=C(CO)[C@@H](O)[C@H](O)[C@H]1O` (stereo partly shown) [Acarbose, reference compound], the “α-Glucosidase mode of inhibition” value (α-glucosidase [1]) was “mixed-type” and the “α-Glucosidase mode of inhibition” value (α-glucosidase [1]; listed as acarbose) was “mixed-type inhibition mode”.

In the case of `CC[C@@H]1CN2CCc3c([nH]c4cccc(OC)c34)[C@@H]2C[C@@H]1/C(=C\OC)C(=O)OC` [Mitragynine], the “α-Glucosidase mode of inhibition” value (α-glucosidase [1]) is reported as “noncompetitive”, the “α-Glucosidase mode of inhibition” value (α-glucosidase [1]; listed as mitragynine) is reported as “noncompetitive inhibitor; also recorded: noncompetitive mode” and the “pancreatic lipase IC50, fold higher than that of orlistat” value (pancreatic lipase) is reported as 30 fold. The IC50 (pancreatic lipase; 0.35 mM 4MUO, 37 °C, mean ± SD, n = 3) was 24.9 µM and 24.7 µM, the “Pancreatic Lipase mode of inhibition” value (pancreatic lipase) was “competitive” and the “Pancreatic Lipase mode of inhibition” value (pancreatic lipase; listed as mitragynine) was “competitive inhibitors; also recorded: competitive mode”. For the same compound, the Ki (pancreatic lipase; from Lineweaver–Burk plots, 4MUO substrate) was 14.9 µM, the “potency of combination with acarbose compared with kratom extract combinations” value (α-glucosidase [2]; mitragynine 100 µM with acarbose) was “less potency than that of kratom extracts” and the “IC50 of combination with acarbose compared with kratom extract combinations” value (α-glucosidase [2]; mitragynine 200 and 300 µM with acarbose) was “decreased IC50 values compared with that of mixed kratom extracts”. The “interaction with acarbose in α-glucosidase inhibition” value (α-glucosidase [2]; mitragynine combined with acarbose) was “synergistic interaction; also recorded: synergistic effect”.

In the case of `CCCCCCCCCCC[C@@H](C[C@@H]1OC(=O)[C@H]1CCCCCC)OC(=O)[C@H](CC(C)C)NC=O` [Orlistat, reference compound], the “Pancreatic Lipase mode of inhibition” value (pancreatic lipase) is given as “competitive”, the “Pancreatic Lipase mode of inhibition” value (pancreatic lipase; listed as orlistat) is given as “competitive inhibitors; also recorded: competitive mode” and the “reduction of dietary fat absorption” value (lipase) is given as “one-third”.

From publication PMC9572452, “Inhibition of α-Glucosidase and Pancreatic Lipase Properties of Mitragyna speciosa (Korth.) Havil. (Kratom) Leaves” (Nutrients, 2022)
